Experimental data published in the NIST ThermoML archive (doi:10.1021/je900311v).

Assay: excess molar enthalpy (molar enthalpy of mixing); xn = mol fraction of the nth substance listed
Settings: 298.15 K, 101 kPa, Liquid, Calvet calorimetry

CCCCCC(=O)CC [3-octanone] + CCCCCCCCCCCCCC
Settings	excess molar enthalpy [kcal/mol]
x1 = 0.0384	0.0466
x1 = 0.074	0.0845
x1 = 0.107	0.116
x1 = 0.1377	0.141
x1 = 0.1664	0.163
x1 = 0.1933	0.181
x1 = 0.2233	0.198
x1 = 0.2512	0.213
x1 = 0.2771	0.224
x1 = 0.3013	0.233
x1 = 0.324	0.241
x1 = 0.3452	0.247
x1 = 0.3687	0.252
x1 = 0.3907	0.257
x1 = 0.4111	0.26
x1 = 0.4303	0.262
x1 = 0.4482	0.263
x1 = 0.465	0.264
x1 = 0.4833	0.264
x1 = 0.5005	0.264
x1 = 0.5166	0.263
x1 = 0.5316	0.261
x1 = 0.5458	0.259
x1 = 0.5618	0.257
x1 = 0.5762	0.254
x1 = 0.5904	0.251
x1 = 0.6033	0.248
x1 = 0.6131	0.245
x1 = 0.6255	0.242
x1 = 0.6385	0.239
x1 = 0.6519	0.235
x1 = 0.666	0.23
x1 = 0.6781	0.226
x1 = 0.6906	0.221
x1 = 0.7037	0.216
x1 = 0.7172	0.21
x1 = 0.7313	0.204
x1 = 0.7459	0.197
x1 = 0.7586	0.19
x1 = 0.7716	0.183
x1 = 0.7852	0.176
x1 = 0.7992	0.167
x1 = 0.8138	0.158
x1 = 0.8288	0.149
x1 = 0.8419	0.14
x1 = 0.8555	0.13
x1 = 0.8694	0.12
x1 = 0.8838	0.109
x1 = 0.8988	0.0967
x1 = 0.9142	0.0835
x1 = 0.9552	0.0458
x1 = 0.9696	0.0313
x1 = 0.9846	0.0167

CCCCCC(=O)CC [3-octanone] + CCCCCCCCCCCC
Settings	excess molar enthalpy [kcal/mol]
x1 = 0.0352	0.0408
x1 = 0.0679	0.0749
x1 = 0.0985	0.102
x1 = 0.1272	0.126
x1 = 0.1541	0.145
x1 = 0.1794	0.162
x1 = 0.2078	0.178
x1 = 0.2344	0.192
x1 = 0.2592	0.203
x1 = 0.2824	0.212
x1 = 0.3042	0.22
x1 = 0.3248	0.226
x1 = 0.3477	0.232
x1 = 0.3691	0.236
x1 = 0.3892	0.239
x1 = 0.408	0.242
x1 = 0.4257	0.243
x1 = 0.445	0.244
x1 = 0.4631	0.245
x1 = 0.48	0.245
x1 = 0.4959	0.245
x1 = 0.5109	0.244
x1 = 0.525	0.243
x1 = 0.5383	0.242
x1 = 0.5524	0.24
x1 = 0.5657	0.237
x1 = 0.5782	0.235
x1 = 0.5798	0.233
x1 = 0.59	0.233
x1 = 0.5925	0.231
x1 = 0.6057	0.229
x1 = 0.6194	0.226
x1 = 0.632	0.222
x1 = 0.6451	0.219
x1 = 0.6588	0.215
x1 = 0.673	0.21
x1 = 0.6855	0.207
x1 = 0.6985	0.201
x1 = 0.712	0.196
x1 = 0.726	0.19
x1 = 0.7405	0.183
x1 = 0.7557	0.176
x1 = 0.7693	0.17
x1 = 0.7833	0.162
x1 = 0.798	0.154
x1 = 0.8133	0.146
x1 = 0.8289	0.136
x1 = 0.8453	0.126
x1 = 0.8592	0.116
x1 = 0.8735	0.106
x1 = 0.8883	0.0958
x1 = 0.9036	0.0842
x1 = 0.9194	0.0717
x1 = 0.9358	0.0585
x1 = 0.9511	0.0454
x1 = 0.9668	0.0313
x1 = 0.9831	0.0161
